The source of these data is patent US9365522B2, “Pyrazole amide derivative” (AMGEN INC., priority 2015, dated 2016).

Assay [1] addresses T1, human RORγ-LBD (Homo sapiens, UniProt P51449).
T1 construct: made in house; host or cells: E. coli (BL-21)
T1 sequence (P51449 262-518): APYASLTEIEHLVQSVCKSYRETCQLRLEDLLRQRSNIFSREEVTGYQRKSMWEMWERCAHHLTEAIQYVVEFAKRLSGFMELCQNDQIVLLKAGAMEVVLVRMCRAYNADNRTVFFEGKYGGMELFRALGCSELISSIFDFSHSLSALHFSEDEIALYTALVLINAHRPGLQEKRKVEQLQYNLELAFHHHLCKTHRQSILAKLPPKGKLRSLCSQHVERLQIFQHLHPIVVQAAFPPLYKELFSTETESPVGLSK
Put plainly: ROR gamma coactivator peptide recruitment Alphascreen assay (RORγ-LBD binding to GRIP1 coactivator peptide). It counts as biochemical. The settings on record: 5 nM human RORγ-LBD, 30 nM 7-β-hydroxycholesterol, 50 nM biotinylated GRIP1 coactivator peptide, overnight incubation at room temperature; read-out: result (pIC50, RORγ coactivator peptide recruitment Alphascreen assay) (converted). The source says: Alphascreen™ is a bead-based amplified homogenous luminescent proximity assay that can be used for measuring the effect of compounds on protein-protein interactions. When biological interactions bring donor and acceptor beads into close proximity, reactive oxygen, generated upon laser excitation of the donor beads, initiates a luminescence/fluorescence cascade in the acceptor beads that leads to a highly amplified signal that can be measured as light in the 520-620 nm range. When the acceptor and donor beads are not in proximity, the reactive oxygen decays and only a very low background signal is generated.
An in vitro assay to assess inhibition of RORγ binding to the coactivator GRIP1 was established using Alphascreen™ technology. The interaction between nuclear receptors (NR) and coactivator proteins is a key step in signal transduction from the receptor to the transcriptional machinery and can be measured in vitro using only the ligand binding domain of the nuclear receptor and a peptide containing a coactivator protein LXXLL nuclear receptor binding motif
For the RORγ construct used in the coactivator recruitment assay, nucleotides corresponding to the ligand binding domain (LBD) of wild type human RORγ (amino acids 262-518 of Genbank Accession No. NM_005060.3) were cloned into the pET24 expression vector (Novagen), downstream of in-frame N-terminal 6×His and Flag tag sequences. Recombinant 6×His:Flag-tagged human RORγ-LBD protein was expressed in E. coli (BL-21) and purified by affinity chromatography on a nickel Sepharose column, followed by anion exchange chromatography.
A 4× assay mixture of 6×His:Flag-tagged human RORγ-LBD with the agonist ligand 7-β-hydroxycholesterol was prepared in assay buffer (50 mM HEPES pH 7.4, BSA 0.05%, 150 mM NaCl, 5 mM MgCl2, 1 mM DTT, 0.01% Tween-20). For control wells a 4× mixture of 6×His:Flag-tagged human ROR gamma LBD alone was also prepared.
A 4× stock of biotinylated coactivator peptide containing the LXXLL motif from GRIP1 (Biotin-[…]) was prepared in assay buffer.
A 4×detection mixture of nickel chelate Alphascreen™ acceptor beads (PerkinElmer) and streptavidin Alphascreen™ donor beads (PerkinElmer) was prepared in assay buffer.
Compounds to be tested were arranged in a pre-dose 384-well mother plate serially diluted 1 in 2 over 22 columns, in 100% DMSO, at 40× the final test concentration, from a high concentration of 4 mM. DMSO with no compound was placed in control columns. The compounds were robotically dispensed directly into assay plates containing assay buffer to a 4× final test concentration.
Following compound addition, the 6×His:Flag-tagged human RORγ-LBD plus 7-β-hydroxycholesterol assay mixture, biotinylated coactivator peptide and detection mixture were added. Final assay conditions were 5 nM 6×His:Flag-tagged human RORγ-LBD, 30 nM 7-β-hydroxycholesterol, 50 nM biotinylated coactivator peptide, 2.5 ug/ml nickel acceptor beads and 10 ug/ml streptavidin donor beads. The final concentration of DMSO in the assay was 2.5%.
After overnight incubation at room temperature plates were read on and Envision™ plate reader (PerkinElmer).
Data was plotted and pIC50 values were calculated using the Genedata Screener™ data analysis suite (Genedata).
On the technique in general: Bead proximity is the source of the signal in Alpha formats.

The target of assay [2] is T2, ligand binding domain of human ROR gamma (Homo sapiens, UniProt P51449).
T2 construct: NM_001001523; expressed in transfected cells; host or cells: HEK293T
T2 sequence (P51449 247-497 isoform P51449-2): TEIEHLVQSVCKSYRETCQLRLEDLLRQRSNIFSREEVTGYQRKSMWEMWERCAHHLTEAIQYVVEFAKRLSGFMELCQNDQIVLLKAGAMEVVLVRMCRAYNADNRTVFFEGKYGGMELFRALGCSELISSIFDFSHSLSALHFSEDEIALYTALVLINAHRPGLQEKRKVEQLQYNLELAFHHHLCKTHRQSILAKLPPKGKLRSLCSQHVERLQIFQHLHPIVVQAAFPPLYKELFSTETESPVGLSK
Kind of assay: ROR gamma reporter gene assay (GAL4-RORγ LBD luciferase, Dual-Glo). The settings on record: HEK293T cells transfected with pM-ROR gamma, 8 concentrations 3.5 nM to 10.5 μM, 24 h incubation; for IC50: read-out: result (pIC50, inhibition of RORγ transcriptional activity) (converted). It counts as cell-based. The method in brief: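 Transient GAL4-RORγ LBD (aa 247-497) / 5×UAS-luc / pRL-CMV cotransfection in HEK293T, charcoal-stripped 10% FBS. 8-pt dose, 3.5 nM–10.5 μM, 0.075% DMSO final. 24 h, 37 °C, 5% CO2. Dual-Glo firefly/renilla readout; pIC50 from curve fit.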
A general note: Reporter assays use an easily measured gene product as a stand-in for the process of interest.

For the compound `COC(CN(CC(C)(C)C)C(=O)c1cnn([C@H]2CC[C@H](C(=O)O)CC2)c1C(F)(F)F)c1c(Cl)cc(C)cc1Cl` (relative stereo) [Example 529, trans-4-(4-(((2R/S)-2-(2,6-dichloro-4-methylphenyl)-2-methoxyethyl)(2,2-dimethylpropyl)carbamoyl)-5-(trifluoromethyl)-1H-pyrazol-1-yl)cyclohexanecarboxylic acid], in assay [1], the IC50 is 63.1 nM.
The same measure, in the same setting: with `CC(C)[C@@H]1C[C@H](Cc2c(Cl)cncc2Cl)N(C(=O)c2cnn([C@H]3CC[C@](C)(C(=O)O)CC3)c2C(F)(F)F)C1` (single isomer, unassigned) [Example 701] the figure was 9.33 nM.
On to `CC(C)(C)CN(CC(=O)c1c(Cl)cncc1Cl)C(=O)c1cnn([C@H]2CC[C@H](C(=O)O)C(C)(C)C2)c1C(F)(F)F` (single isomer, unassigned) [Example 785], for which, in assay [1], the IC50 is 3.98 nM.
Still for that read-out and setting: as for `C[C@]1(C(=O)O)CC[C@H](n2ncc(C(=O)N3C[C@@H](Oc4ccccc4)C[C@@H]3C(=O)c3c(Cl)cncc3Cl)c2C(F)(F)F)CC1` (single isomer, unassigned) [Example 796], the figure is 18200 nM; as for `CC1(CN(CC(=O)c2c(Cl)cncc2Cl)C(=O)c2cnn([C@H]3CC[C@H](C(=O)O)C(C)(C)C3)c2C(F)(F)F)CCC1` (single isomer, unassigned) [Example 807], 45.7 nM.
On the same count and under the same terms, as for `C[C@H]1C[C@@H](n2ncc(C(=O)N(CC(=O)c3c(Cl)cncc3Cl)CC(C)(C)C)c2C(F)(F)F)CC[C@@H]1C(=O)O` (single isomer, unassigned) [Example 813], the figure is 6.03 nM.
For `C[C@]1(C(=O)O)CC[C@H](n2ncc(C(=O)N3C[C@H](C4CCCCC4)C[C@@H]3C(=O)c3c(Cl)cncc3Cl)c2C(F)(F)F)CC1` (single isomer, unassigned) [Example 822], in assay [1], the IC50 is 5890 nM.
On to `C[C@]1(C(=O)O)CC[C@H](n2ncc(C(=O)N3C[C@H](C4CCCCC4)C[C@H]3C(=O)c3c(Cl)cncc3Cl)c2C(F)(F)F)CC1` (single isomer, unassigned) [Example 823], for which the IC50 in assay [1] was 9120 nM.
Turning to `CC1(C)[C@@H]2C[C@H](N(CCn3cnc4cccc(Cl)c43)C(=O)c3cnn([C@H]4CC[C@](C)(C(=O)O)CC4)c3C(F)(F)F)C[C@@H]21` [Example 405, trans-4-(4-((2-(7-chloro-1H-benzo(d)imidazol-1-yl)ethyl)((1R,3r,5S)-6,6-dimethylbicyclo[3.1.0]hexan-3-yl)carbamoyl)-5-(trifluoromethyl)-1H-pyrazol-1-yl)-1-methylcyclohexanecarboxylic acid], in assay [2], the IC50 is not below 1.05e+07 pM.
Take `CC(C)(C)CN(CC(=O)c1c(Cl)cccc1OC(F)F)C(=O)c1cnn([C@H]2CC[C@](C)(C(=O)O)CC2)c1C(F)(F)F` [Example 406, trans-4-(4-((2-(2-chloro-6-(difluoromethoxy)phenyl)-2-oxoethyl)-(2,2-dimethylpropyl)carbamoyl)-5-(trifluoromethyl)pyrazol-1-yl)-1-methylcyclohexane-1-carboxylic acid]: in assay [2], the IC50 is 50100 pM.
The same measure, in the same setting: as for `Cc1ncc(Cl)c(C(O)CN(C(=O)c2cnn([C@H]3CC[C@](C)(C(=O)O)CC3)c2C(F)(F)F)[C@H]2C[C@@H]3[C@H](C2)C3(C)C)n1` (stereo partly drawn) [Example 407, trans-4-(4-((2-(5-chloro-2-methylpyrimidin-4-yl)-2-hydroxyethyl)((1R,3r,5S)-6,6-dimethylbicyclo[3.1.0]hexan-3-yl)carbamoyl)-5-(trifluoromethyl)-1H-pyrazol-1-yl)-1-methylcyclohexanecarboxylic acid], the figure is 479000 pM; as for `CC1(C)[C@@H]2C[C@H](N(CC(O)c3ncncc3Cl)C(=O)c3cnn([C@H]4CC[C@](C)(C(=O)O)CC4)c3C(F)(F)F)C[C@@H]21` (stereo partly drawn) [Example 408, trans-4-(4-((2-(5-chloropyrimidin-4-yl)-2-hydroxyethyl)((1R,3r,5S)-6,6-dimethylbicyclo[3.1.0]hexan-3-yl)carbamoyl)-5-(trifluoromethyl)-1H-pyrazol-1-yl)-1-methylcyclohexanecarboxylic acid], 331000 pM; as for `CC1(C)[C@@H]2C[C@H](N(CC(N)c3c(F)cccc3Cl)C(=O)c3cnn([C@H]4CC[C@](C)(C(=O)O)CC4)c3C(F)(F)F)C[C@@H]21` (stereo partly drawn) [Example 409, trans-4-(4-((2-amino-2-(2-chloro-6-fluorophenyl)ethyl)((1R,3r,5S)-6,6-dimethylbicyclo[3.1.0]hexan-3-yl)carbamoyl)-5-(trifluoromethyl)-1H-pyrazol-1-yl)-1-methylcyclohexanecarboxylic acid], 776000 pM.
Still for that read-out and setting: as for `Cc1nccnc1C(O)CN(C(=O)c1cnn([C@H]2CC[C@](C)(C(=O)O)CC2)c1C(F)(F)F)[C@H]1C[C@@H]2[C@H](C1)C2(C)C` (stereo partly drawn) [Example 410, trans-4-(4-(((1R,3r,5S)-6,6-dimethylbicyclo[3.1.0]hexan-3-yl)(2-hydroxy-2-(3-methylpyrazin-2-yl)ethyl)carbamoyl)-5-(trifluoromethyl)-1H-pyrazol-1-yl)-1-methylcyclohexanecarboxylic acid], the figure is 2.14e+06 pM; as for `CC1(C)[C@@H]2C[C@H](N(CC(O)c3ccsc3Cl)C(=O)c3cnn([C@H]4CC[C@](C)(C(=O)O)CC4)c3C(F)(F)F)C[C@@H]21` (stereo partly drawn) [Example 411, trans-4-(4-((2-(2-chlorothiophen-3-yl)-2-hydroxyethyl)((1R,3r,5S)-6,6-dimethylbicyclo[3.1.0]hexan-3-yl)carbamoyl)-5-(trifluoromethyl)-1H-pyrazol-1-y1)-1-methylcyclohexanecarboxylic acid], 224000 pM; as for `O=C(c1c(C(F)(F)F)nn([C@H]2CC[C@H](C(=O)O)CC2)c1C(F)(F)F)N(CCc1c(Cl)cncc1Cl)Cc1ccc(F)cc1` [Example 412, trans-4-(4-(2-(3,5-dichloropyridin-4-yl)ethyl-((4-fluorophenyl)methyl)carbamoyl)-3,5-bis(trifluoromethyl)pyrazol-1-yl)cyclohexane-1-carboxylic acid], 1.12e+06 pM.
For the compound “cis-3-(4-((2-(3,5-dichloropyridin-4-yl)-2- oxoethyl)(4-fluorobenzyl)carbamoyl)-5- (trifluoromethyl)-1H-pyrazol-1-yl)-1- fluorocyclohexanecarboxylic acid [Example 83]”, in assay [2], the “result (pIC50, inhibition of RORγ transcriptional activity)” value came to 5.78.
On the same count and under the same terms, with “trans-4-(4-((2-(3-chloro-5-fluoropyridin-4-yl)- 2-oxoethyl)-(2,2-dimethylbutyl)carbamoyl)-5- (trifluoromethyl)pyrazol-1-yl)-1- methylcyclohexane-1-carboxylic acid [Example 337]” the figure was 7.20.
